Laboratory results reported in patent US12466807B2, “Salt and crystal form of a FAK inhibitor” (Amplia Therapeutics Limited, priority 2019, dated 2025).

Assay: 7-day stability study
Assay type: physicochemical
Conditions: for XRPD / HPLC Purity: 1 week; for HPLC Purity: input purity 99.8%
Method: 7-day stability tests were carried out as follows: • Approximately 10-20 mg of Formula I L-tartrate Pattern 1 was placed at either 40° C./75% RH, 80° C. or under ambient light and temperature for 1 week. The resulting solids were analyzed by XRPD to assess the physical stability and HPLC to assess the chemical stability.

COc1cc(C2CCN(C)CC2)ccc1Nc1ncc(C(F)(F)F)c(CCc2ccccc2CC(N)=O)n1 [L-Tartrate]
XRPD (40° C./75% RH): Pattern 1
HPLC Purity (40° C./75% RH): 99.6 % Area
XRPD (80° C.): Pattern 1
HPLC Purity (80° C.): 99.3 % Area
XRPD (Ambient temperature and light): Pattern 1
HPLC Purity (Ambient temperature and light): 99.5 % Area
Stability under accelerated conditions (one week, ambient temperature and light, 40° C./75% RH and 80° C.): considered stable
